Laboratory results from patent US7381546B2, “Polyketides and their synthesis and use” (Biotica Technology Limited, priority 1998, dated 2008).
Like-named read-outs stand apart in the source and are kept apart here.

Tested on: human lymphoblastoid cell lines 536
Assay: Tritiated thymidine incorporation (DNA synthesis) bioassay in 536 cells
Format: cell-based
Conditions: for IC50: after 24 and 48 hours drug exposure, radiolabelled thymidine incorporation (FIG. 4), read-out: ID50% concentration-dependent inhibition of DNA synthesis
Method: Rapamycin induces a specific cell cycle arrest in G1 in the cell line 536, which is a human B lymphocytic line immortalised by Epstein Barr virus infection. The potency of each analogue was compared to that of rapamycin using the 536 cells as a bioassay. The 536 cells (obtained from the human genetic mutant cell repository, Camden, N.J., USA) were cultured in Iscoves medium supplemented with 10% fetal calf serum. For bioassay, 536 cells were seeded into 96 well microtitre plates at 10,000 per well in 100 μl of growth medium. Drug stocks of 1 mM in DMSO were prepared and further dilutions were made to give a constant final concentration of 0.1% DMSO in growth medium. Control cultures were treated with 0.1% DMSO in growth medium; experimental cultures received a final concentration of 10^−7M, 10^−8M, 10^−9M or 10^−10M rapamycin or rapamycin analogue. Each culture was set up in triplicate and replicate plates were labelled with 1 μCi tritiated thymidine (Amersham International, specific activity 70 Ci/mM) per well for 3 h at either Oh; 24 h; or 48 h incubation with drugs. At the respective time points the cultures were harvested onto glass fibre paper to trap the DNA following water lysis; free nucleotides were washed away. Radioactivity incorporated into the filter discs/trapped DNA was counted in a Packard scintillation counter using biodegradable scintillation fluid.
The dose response of human lymphoblastoid cell lines 536 was measured. […] This implies that none of the compounds were toxic to the 536 cell line.

4-hydroxy-prolyl-26-demethoxy-rapamycin
effect on DNA synthesis (mean cpm of radiolabelled thymidine incorporated) (0-3 h drug exposure, up to 100 nM (FIG. 3)): no appreciable effect | inhibition of DNA synthesis (at 100 nM, after 24 and 48 hours (FIG. 4)): < 50%

COC1CC2CCC(C)C(O)(O2)C(=O)C(=O)N2CCCC2C(=O)OC(C(C)CC2CCC(O)C(OC)C2)CC(=O)C(C)/C=C(\C)C(O)C(OC)C(=O)C(C)CC(C)/C=C/C=C/C=C/1C (stereo not shown) [prolylrapamycin]
IC50: 3 nM

CO[C@H]1C[C@@H]2CC[C@@H](C)[C@@](O)(O2)C(=O)C(=O)N2CCCC[C@H]2C(=O)O[C@H]([C@H](C)C[C@@H]2CC[C@@H](O)[C@H](OC)C2)CC(=O)[C@H](C)/C=C(\C)[C@@H](O)[C@@H](OC)C(=O)[C@H](C)C[C@H](C)/C=C/C=C/C=C/1C [rapamycin, reference compound]
IC50 (Homo sapiens, Lymphoblastoid cell): 1 nM
